Measurements reported in patent US20240287100A1, “ALKYLIDENE DERIVATIVES AS KRAS INHIBITORS” (NIKANG THERAPEUTICS, INC., priority 2021, published 2024).

Target: T1, K-Ras G12D (Homo sapiens, UniProt P01116, G12D)
T1 construct: AGS (Cobioer, CBP60476) cell lines which harbor KRAS G12D mutation; host or cells: AGS
Experiment: p-ERK Cellular 1-Plate Assay (AlphaLISA SureFire Ultra p-ERK1/2) in AGS cells
Format: cell-based
Conditions: AGS cells harboring KRAS G12D mutation, 3 h at 37° C., 5,000 cells per well
Experimental: p-ERK Cellular 1-Plate Assay
The ability of the compound of Formula (I) or a pharmaceutically acceptable salt thereof (test compound) to inhibit K-Ras G12D activity was tested using AGS (Cobioer, CBP60476) cell lines which harbor KRAS G12D mutation as described below.
AGS (Cobioer, CBP60476) were seeded in 384-well plates and cultured overnight (5,000 cells per well, 40 μl total volume). The following morning, cells were treated with test compound, with starting concentration at 10 μM and 3-fold dilution down to 0.5 nM for 3 h at 37° C. DMSO treatment served as control, p-ERK was then measured using AlphaLISA SureFire Ultra p-ERK1/2 (Thr202/Tyr204) Assay Kit (Perkin Elmer, cat #ALSU-PERK) following the manufacturer's instruction as follows.
Briefly, the culture medium was removed and 10 μl 1× lysis buffer was added to each well, followed by 10 minutes incubation on a plate shaker at room temperature. Acceptor mixture was prepared according to manufacturer's instruction. 5 μl acceptor mixture was added to the cell lysate and the plate was wrapped with foil, spun at 500 rpm for 10 s and incubated at RT for 60 min. Donor mixture was prepared under subdued light. 5 μl donor mixture was added to the cell lysate and the plate was spun at 500 rpm for 10s and incubated at RT for another 60 min. in the dark. Signal was then measured on a EnVision 2105 multimode plate reader. […]

T1 sequence (P01116 1-188 isoform P01116-2 G12D): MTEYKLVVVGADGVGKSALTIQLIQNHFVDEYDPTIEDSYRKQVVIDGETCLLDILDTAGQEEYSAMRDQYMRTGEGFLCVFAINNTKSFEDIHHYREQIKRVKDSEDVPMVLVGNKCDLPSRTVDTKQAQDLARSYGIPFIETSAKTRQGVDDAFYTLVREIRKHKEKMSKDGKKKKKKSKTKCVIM

| EC50 [nM] | SMILES |
| --- | --- |
| 170 | C#Cc1c(F)ccc2cccc(-c3ncc4c(N5CC6CCC(C)(C5)N6)nc(OC[C@]56CC(=C)CN5C[C@@H](F)C6)nc4c3F)c12 (stereo partly drawn) [Example 30, 7-(8-ethynyl-7-fluoronaphthalen-1-yl)-8-fluoro-2-(((2S,7aR)-2-fluoro-6-methylenetetrahydro-1H-pyrrolizin-7a(5H)-yl)methoxy)-4-(1-methyl-3,8-diazabicyclo[3.2.1]octan-3-yl)pyrido[4,3-d]pyrimidine] |
| > 100 | C#Cc1c(F)ccc2cccc(-c3ncc4c(N5CC6CCC5CN6)nc(OC[C@]56CC(=C)CN5C[C@H](F)C6)nc4c3F)c12 (stereo partly drawn) [Example 31, 2-(7-(8-ethynyl-7-fluoronaphthalen-1-yl)-8-fluoro-2-(((2R,7aR)-2-fluoro-6-methylenetetrahydro-1H-pyrrolizin-7a(5H)-yl)methoxy)pyrido[4,3-d]pyrimidin-4-yl)-2,5-diazabicyclo[2.2.2]octane] |
